Laboratory results as given in patent publication US11981711B2, “Methods of treating spinal cord injury using a chondroitin sulfate proteoglycan (CSPG) reduction peptide (CRP) comprising a cell membrane penetrating domain, a CSPG binding domain, and a lysosome targeting domain” (The Cleveland Clinic Foundation, priority 2017, dated 2024).

Columns and labels:
STAT3 = STAT3 activation (phospho-STAT3 Tyr705) in spinal cord after SCI, SRP treatment; format: in vivo, rat; settings: 7 days after SCI; once per day beginning one day after SCI
Source text: (§1) Graphs represent mean±SEM of five samples per group for the ratios of SOCS3 to actin (B) and p-STAT3 to STAT3 (C). +p<0.05, ++p<0.01, and +++p<0.001 compared to normal animals, and *p<0.05 and ***p<0.001 compared to scrambled peptide animals (two way ANOVA with Bonferroni multiple analyses).

SOCS1 = target: T1, SOCS1 (Rattus norvegicus, UniProt Q9QX78); assay: SOCS1 protein level in spinal cord after SCI, SRP treatment; format: in vivo; settings: 7 days after SCI; once per day beginning one day after SCI
T1 construct: from tissue; host or cells: rat spinal cord
T1 sequence (Q9QX78 1-212): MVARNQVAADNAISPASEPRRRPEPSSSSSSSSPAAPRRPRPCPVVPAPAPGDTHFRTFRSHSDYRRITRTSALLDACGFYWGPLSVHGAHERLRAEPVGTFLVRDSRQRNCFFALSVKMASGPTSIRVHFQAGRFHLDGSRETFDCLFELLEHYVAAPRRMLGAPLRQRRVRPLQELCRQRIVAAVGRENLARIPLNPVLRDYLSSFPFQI

spinal cord injury (SCI) [1] = assay: BBB open field locomotion test after T8 contusive SCI, SRP treatment; format: in vivo, rat; settings: subcutaneous daily for one month beginning one day after SCI; vs scrambled peptide; entire observation period
Source text: (§2) In this Example, the SRP has been applied in a preclinical rat model to test the efficacy of the treatment of spinal cord injury (SCI) in a manner similar to Example 1 above for CRP.
Animals were subcutaneously injected with SRP daily for one month beginning one day after SCI and assessed by the BBB open field locomotion test to evaluate hind limb motor function at the designated time points. […] Values represent mean±SEM.

spinal cord injury (SCI) [2] = assay: Urodynamic analyses (CMG, EUS EMG) after T8 contusive SCI, SRP treatment; format: in vivo, rat; settings: 3 months post-SCI
Procedure: as §2
Animals were treated daily with SRP for one month, beginning one day after SCI. Urodynamic analyses were conducted 3 months post-SCI. […] EUS EMG recording were conducted 3 months post-SCI.

[3] = tested on: TBK1 and mitophagy adaptors; assay: TBK1 and mitophagy adaptors in spinal cord after SCI, SRP treatment; format: in vivo, rat; settings: vs scrambled peptide
Source text: (A). Graphs represented mean±SEM of six samples per group for the % to GAPDH (B). *p<0.05, **p<0.01 and ***p<0.001 compared to scrambled peptide animals (two-tailed t test, n=3 per group).

arginase 1, iNOS, TNF-α = assay: qRT-PCR of markers for pro- vs. anti-inflammatory macrophages in spinal cord segments caudal to injury; format: in vivo, rat; settings: vs scrambled peptide
Procedure: Rats were treated once per day beginning one day after SCI with SRP or scrambled peptide (scr) and mRNA was then harvested and analyzed by qRT-PCR. […] C.

[4] = tested on: ED1+macrophages/microglia; assay: Double immunolabeling of ED1 and GFAP in spinal cord after SCI, SRP treatment; format: in vivo, rat; settings: three months post-SCI, vs scrambled peptide
Procedure: SRP treatment beginning one day after SCI was administered for 30 consecutive days and then spinal cords were harvested three months post-SCI for double immunolabeling of ED1 and GFAP.

SOCS3 [5] = target: T2, SOCS3 (Rattus norvegicus, UniProt O88583); assay: SOCS3 level in sciatic nerve after sciatic nerve transection, SRP treatment; format: in vivo; parameters: from tissue; host or cells: sciatic nerve; settings: once per day for 4 consecutive days beginning immediately after transection; vs scrambled peptide
T2 sequence (O88583 1-225): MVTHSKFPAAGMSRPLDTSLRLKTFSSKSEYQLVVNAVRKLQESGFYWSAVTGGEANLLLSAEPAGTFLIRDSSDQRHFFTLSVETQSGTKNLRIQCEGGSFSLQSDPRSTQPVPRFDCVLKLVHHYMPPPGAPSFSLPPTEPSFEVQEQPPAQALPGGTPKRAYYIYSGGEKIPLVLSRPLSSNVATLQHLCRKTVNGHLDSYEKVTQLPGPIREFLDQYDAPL

SOCS3 [6] = target: T2, SOCS3; assay: SOCS3 protein level in spinal cord after SCI, SRP treatment; format: in vivo; parameters: from tissue; host or cells: rat spinal cord (epicenter and caudal segments); settings: 7 days after SCI; once per day beginning one day after SCI; vs scrambled peptide
Source text: as §2, §1

[7] = tested on: chondroitin sulfate proteoglycan (CSPG); assay: CSPG expression around the spinal cord lesion after contusive SCI, treatment from one day after SCI; format: in vivo, rat; settings: two weeks after contusive SCI; treatment starting one day after SCI; vs vehicle
Source text: (§3) In this Example, the CRP has been applied in a preclinical rat model to test the efficacy of the treatment of spinal cord injury (SCI). The injury was made at thoracic 8 level using contusive injury device. The contusive SCI is the most clinical relevance among all experimental SCI models. We have assessed both motor and bladder control as functional outcomes and analyzed anatomical evidences to support these findings. We also selected sub-acute phase (ONE-DAY after SCI) and chronic phase (TWO-MONTHs after SCI) to start our treatment.
Furthermore CRP can efficiently improve locomotion and bladder electromyography (EMG) activities and voiding patterns after SCI.

spinal cord injury (SCI) [8] = assay: Locomotion (BBB 21-point score) and gait after chronic SCI, treatment from two months after SCI; format: in vivo, rat
Source text: Basso, Beattie, and Bresnahan (BBB) 21-point scoring test is used as the locomotion assessment after SCI. SCI causes significant deficits on locomotion function as indicated by the significant drop of BBB scores from 21 of the normal rats. […] However, ISP treatment slightly decreases BBB scores from 11.667±0.211 (two months after SCI) to 11.00±0.577 (two months plus 42 days after SCI) (A).
as §3
The above were followed up with studies to evaluate the treatment effects of CRP in chronic SCI. The chronic SCI is not only way more challenge to be repaired but also is the clinical status of the majority of patients with SCI.

spinal cord injury (SCI) [9] = settings: cited from earlier work
[10] = once per day beginning one day after SCI

Substance: YGRKKRRQRRR-VQpYSTVVHS-KFERQKILDQRFFE [SRP]
- phospho-STAT3 Tyr705 (p-STAT3 to STAT3) (STAT3): significant activation of STAT3
- SOCS1 level (SOCS1): not significantly altered
- hind limb locomotion (BBB) (spinal cord injury (SCI) [1]): significant improvement in hind limb locomotion
- bladder hyperactivity (CMG) (spinal cord injury (SCI) [2]; daily for one month beginning one day after SCI): significantly reduced bladder hyperactivity
- EUS EMG bursting activity during the void period (spinal cord injury (SCI) [2]; vs scrambled peptide): improvement in bursting activity
- non-voiding contraction amplitude (spinal cord injury (SCI) [2]; vs scrambled peptide): significantly reduced
- number of non-voiding contractions (spinal cord injury (SCI) [2]; vs scrambled peptide): significantly reduced
- residual volume (spinal cord injury (SCI) [2]; vs scrambled peptide): significantly reduced
- TBK1 protein level [3, 10]: significantly increased
- optineurin protein level [3, 10]: significantly increased
- phospho-TBK1 Ser172 (p-TBK1) [3]: significant activation of TBK1 and p62
- phosphor-p62 Ser403 (p-p62) [3]: significant activation of TBK1 and p62
- arginase 1 expression (mRNA) (arginase 1, iNOS, TNF-α; 7 and 14 days post-SCI): increased
- iNOS expression (mRNA) (arginase 1, iNOS, TNF-α; 7 and 14 days post-SCI): decreased
- TNF-α expression (mRNA) (arginase 1, iNOS, TNF-α; 7 days post-SCI): decreased
- SCI-increased ED1+macrophages/microglia ([4]; treatment for 30 consecutive days beginning one day after SCI): blocked SCI-induced upregulation of ED1+macrophages
- GFAP+tissues surrounding the lesion epicenter [4]: preserved more GFAP+tissues
- sciatic nerve transection-upregulated SOCS3 (SOCS3 [5]): significantly reduced
- SCI-upregulated SOCS3 (ratio of SOCS3 to actin) (SOCS3 [6]): significantly reduced

Substance: intracellular sigma peptide [ISP, reference compound]
- CSPG in lesion epicenter and adjacent tissue [7]: does not decrease CSPG
- BBB score (spinal cord injury (SCI) [8]; two months after SCI (start of treatment)): 11.667±0.211
- BBB score (spinal cord injury (SCI) [8]; two months plus 42 days after SCI, treatment starting two months after contusive SCI): 11.00±0.577
- functional recovery after SCI (spinal cord injury (SCI) [9]; applied immediately after SCI in rats): minor effects on promoting functional recovery
- effect on chronic SCI (spinal cord injury (SCI) [9]; applied two-month after SCI): no effects on chronic SCI
- effect on CSPG in vivo (spinal cord injury (SCI) [9]; background statement): no effects on CSPG
